Reference: patent publication US20060069132A1, “Azolecarboxamide herbicides” (priority 2004, published 2006)

Assays:
[1] = tested on: lambsquarters; assay: Test C pre-/postemergence herbicide test; type: in vivo, Chenopodium album
Outline: (§1)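 Pre/post spray; non-phytotoxic solvent + surfactant. Post-timing 1–4 leaves, 2–18 cm. Read-out: visual % control vs untreated, day 12–14, greenhouse.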

[2] = tested on: soybean; assay: Test C pre-/postemergence herbicide test; type: in vivo, Glycine max
Outline: as §1

[3] = tested on: yellow nutsedge; assay: Test C pre-/postemergence herbicide test; type: in vivo, Cyperus esculentus
Outline: as §1

[4] = tested on: rice; assay: Test C flooded paddy test; type: in vivo, Oryza sativa; settings: for Plant response rating, Rice: 500 g ai/ha, visual rating after 12 to 14 days
Outline: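 Plants were grown to the 1- to 4-leaf stage (2–18 cm) and then treated postemergence, or grown to the 2-leaf stage for the flooded paddy test. They were held in a greenhouse for 12 to 14 days and then scored by eye against controls, where 0 is no effect and 100 is complete control.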

[5] = tested on: common (oilseed) sunflower; assay: Test C pre-/postemergence herbicide test; type: in vivo, Helianthus annuus
Outline: as §1

[6] = tested on: morningglory; assay: Test A pre-/postemergence herbicide test; type: in vivo, Ipomoea spp.
Outline: (§2)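 Greenhouse injury scoring (0–100, complete control = 100) at approximately ten days follows simultaneous pre- and postemergence application. Soil received a directed spray after seeding; seedlings of 2–10 cm at the one- to two-leaf stage were sprayed to runoff.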

[7] = tested on: velvetleaf; assay: Test A pre-/postemergence herbicide test; type: in vivo, Abutilon theophrasti
Outline: as §2

[8] = tested on: cocklebur; assay: Test C pre-/postemergence herbicide test; type: in vivo, Xanthium strumarium; settings: for Cocklebur plant response rating: 500 g ai/ha
Outline: as §1

[9] = tested on: common ragweed; assay: Test C pre-/postemergence herbicide test; type: in vivo, Ambrosia elatior; design: key to Plant response rating, Ragweed: 0 = no effect, 100 = complete control
Outline: as §1

[10] = tested on: rice; assay: Test B pre-/postemergence herbicide test; type: in vivo, Oryza sativa; settings: preemergence
Outline: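 Seeds were planted and treated preemergence with compounds formulated in a non-phytotoxic solvent mixture containing surfactant, while plants at the 1- to 4-leaf stage (2 to 18 cm) received postemergence sprays. Flooded paddy plants were grown to the 2-leaf stage. After 13 to 15 days in a greenhouse, injury was visually rated 0–100 against untreated controls.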

[11] = 125 g ai/ha, scale 0 (no effect) to 100 (complete control), visual, 12 to 14 days, preemergence
[12] = Postemergence, 500 g ai/ha, scale 0 to 100
[13] = Postemergence, 250 g ai/ha, scale 0 to 100, 0 no effect, 100 complete control
[14] = Preemergence, 500 g ai/ha, scale 0 to 100, 0 no effect, 100 complete control
[15] = postemergence, 125 g ai/ha, scale 0 to 100
[16] = postemergence, 62 g ai/ha, scale 0 to 100
[17] = 62 g ai/ha, scale 0 to 100 (0 no effect, 100 complete control)
[18] = 250 g ai/ha, scale of 0 to 100, 0 is no effect, 100 is complete control
[19] = scale 0 to 100 (0 no effect, 100 complete control)
[20] = Postemergence, 500 g ai/ha, 0 to 100 scale, 0 no effect, 100 complete control
[21] = Postemergence, 2000 g ai/ha, 0 to 100 scale, 0 no effect, 100 complete control
[22] = Preemergence, 500 g ai/ha, visual rating, 0 to 100 scale (0 no effect, 100 complete control)
[23] = Preemergence, 2000 g ai/ha, visual rating, 0 to 100 scale (0 no effect, 100 complete control)
[24] = Preemergence, scale 0 to 100, 0 no effect, 100 complete control
[25] = 62 g ai/ha, preemergence, scale 0 to 100
[26] = 250 g ai/ha, scale 0-100, preemergence
[27] = 500 g ai/ha, scale 0 to 100 (0 no effect, 100 complete control), visual, 12 to 14 days, preemergence
[28] = preemergence, 500 g ai/ha, visual injury, 0 to 100 scale (0 no effect, 100 complete control)

Question: Which “Plant response rating (0 = no effect, 100 = complete control), Lambsquarters” value ([1]; 62 g ai/ha, preemergence) does the source give for CC(=NO)c1cccc(NC(=O)c2cc(C(C)(C)C)nn2CCF)c1 [Compound 115] here?
Answer: Its value is 100.

Question: And the “Plant response rating, Lambsquarters” value [1, 11]?
Answer: The value was 100.

Question: And the “Lambsquarters plant response rating” value [1, 12]?
Answer: The value was 100.

Question: And the “Plant response rating, Lambsquarters” value [1, 13]?
Answer: The value was 100.

Question: What about the “Lambsquarters plant response rating” value [1, 14] of the same compound?
Answer: Its value is 100.

Question: What about the “Plant response rating, Lambsquarters” value [1, 15] of the same compound?
Answer: Its value is 100.

Question: What about the “Plant response rating, Lambsquarters” value [1, 16] of the same compound?
Answer: Its value is 100.

Question: And the “Plant response rating (0 = no effect, 100 = complete control), Soybean” value ([2]; 62 g ai/ha, preemergence)?
Answer: Its value is 0.

Question: What about the “Plant response rating, Soybean” value [2, 11] of the same compound?
Answer: Its value is 0.

Question: And the “Soybean plant response rating” value [2, 12]?
Answer: Its value is 90.

Question: What about the “Plant response rating, Soybean” value [2, 13] of the same compound?
Answer: Its value is 80.

Question: What about the “Soybean plant response rating” value [2, 14] of the same compound?
Answer: Its value is 0.

Question: What about the “Plant response rating, Soybean” value [2, 15] of the same compound?
Answer: Its value is 70.

Question: And the “Plant response rating, Soybean” value [2, 16]?
Answer: Its value is 60.

Question: What about the “Plant response rating (0 = no effect, 100 = complete control), Nutsedge, Yellow” value ([3]; 62 g ai/ha, preemergence) of the same compound?
Answer: Its value is 0.

Question: What about the “Plant response rating, Nutsedge, Yellow” value [3, 11] of the same compound?
Answer: Its value is 0.

Question: And the “Nutsedge, Yellow plant response rating” value [3, 12]?
Answer: The value was 30.

Question: And the “Plant response rating, Nutsedge, Yellow” value [3, 13]?
Answer: Its value is 30.

Question: And the “Nutsedge, Yellow plant response rating” value [3, 14]?
Answer: Its value is 20.

Question: And the “Plant response rating, Nutsedge, Yellow” value [3, 15]?
Answer: The value was 10.

Question: And the “Plant response rating, Nutsedge, Yellow” value [3, 16]?
Answer: Its value is 0.

Question: What about the “Rice plant response rating” value [4, 17] of the same compound?
Answer: The value was 55.

Question: And the “Rice plant response rating” value ([4]; 125 g ai/ha, scale of 0 to 100, 0 is no effect, 100 is complete control)?
Answer: Its value is 65.

Question: And the “Rice plant response rating” value [4, 18]?
Answer: The value was 75.

Question: What about the “Plant response rating, Rice” value [4, 19] of the same compound?
Answer: The value was 75.

Question: And the “Plant response rating (0 = no effect, 100 = complete control), Sunflower” value ([5]; 62 g ai/ha, preemergence)?
Answer: The value was 0.

Question: What about the “Sunflower plant response rating” value [5, 14] of the same compound?
Answer: Its value is 10.

Question: What about the “Morningglory plant response rating” value [6, 20] of the same compound?
Answer: Its value is 35.

Question: And the “Plant response rating, Morningglory” value [6, 21]?
Answer: The value was 30.

Question: And the “Morningglory plant response rating” value [6, 22]?
Answer: The value was 70.

Question: And the “Morningglory plant response rating” value [6, 23]?
Answer: Its value is 90.

Question: And the “Velvetleaf plant response rating” value [7, 20]?
Answer: The value was 40.

Question: What about the “Plant response rating, Velvetleaf” value [7, 21] of the same compound?
Answer: Its value is 40.

Question: What about the “Velvetleaf plant response rating” value [7, 22] of the same compound?
Answer: The value was 85.

Question: What about the “Velvetleaf plant response rating” value [7, 23] of the same compound?
Answer: Its value is 95.

Question: And the “Plant response rating (0 = no effect, 100 = complete control), Cocklebur” value ([8]; 62 g ai/ha, preemergence)?
Answer: The value was 20.

Question: And the “Plant response rating, Cocklebur” value [8, 11]?
Answer: The value was 40.

Question: And the “Plant response rating, Cocklebur” value ([8]; 250 g ai/ha, scale 0 to 100 (0 no effect, 100 complete control), visual, 12 to 14 days, preemergence)?
Answer: The value was 50.

Question: What about the “Cocklebur plant response rating” value ([8]; Postemergence, scale 0 to 100) of the same compound?
Answer: Its value is 100.

Question: What about the “Plant response rating, Cocklebur” value [8, 13] of the same compound?
Answer: The value was 100.

Question: And the “Cocklebur plant response rating” value [8, 24]?
Answer: Its value is 100.

Question: What about the “Plant response rating, Cocklebur” value [8, 15] of the same compound?
Answer: The value was 90.

Question: What about the “Plant response rating, Cocklebur” value [8, 16] of the same compound?
Answer: The value was 90.

Question: What about the “Plant response rating (0 = no effect, 100 = complete control), Ragweed” value ([9]; 62 g ai/ha, preemergence) of the same compound?
Answer: Its value is 70.

Question: What about the “Plant response rating, Ragweed” value [9, 11] of the same compound?
Answer: Its value is 80.

Question: And the “Ragweed plant response rating” value [9, 12]?
Answer: Its value is 90.

Question: And the “Plant response rating, Ragweed” value [9, 13]?
Answer: The value was 70.

Question: What about the “Ragweed plant response rating” value [9, 14] of the same compound?
Answer: The value was 100.

Question: And the “Plant response rating, Ragweed” value [9, 15]?
Answer: Its value is 70.

Question: And the “Plant response rating, Ragweed” value [9, 16]?
Answer: Its value is 70.

Question: What about the “Plant response rating, Rice” value ([10]; 125 g ai/ha, 0 to 100 scale, 0 is no effect, 100 is complete control) of the same compound?
Answer: Its value is 0.

Question: With CCNC(=O)c1cccc(NC(=O)c2sc(C(C)(C)C)nc2CC)c1 [Compound 210] as the compound, how does the “Plant response rating, Lambsquarters” value [1, 25] read?
Answer: Its value is 100.

Question: And the “Plant response rating, Lambsquarters” value [1, 11]?
Answer: Its value is 100.

Question: And the “Plant response rating, Lambsquarters” value [1, 26]?
Answer: Its value is 100.

Question: What about the “Plant response rating, Lambsquarters” value [1, 27] of the same compound?
Answer: The value was 100.

Question: And the “Plant response rating, Soybean” value [2, 25]?
Answer: Its value is 0.

Question: What about the “Plant response rating, Soybean” value [2, 11] of the same compound?
Answer: Its value is 0.

Question: And the “Plant response rating, Soybean” value [2, 26]?
Answer: Its value is 0.

Question: What about the “Plant response rating, Soybean” value [2, 27] of the same compound?
Answer: The value was 0.

Question: And the “Plant response rating, Nutsedge, Yellow” value [3, 25]?
Answer: The value was 0.

Question: What about the “Plant response rating, Nutsedge, Yellow” value [3, 11] of the same compound?
Answer: The value was 0.

Question: And the “Plant response rating, Nutsedge, Yellow” value [3, 26]?
Answer: Its value is 5.

Question: What about the “Plant response rating, Nutsedge, Yellow” value [3, 27] of the same compound?
Answer: Its value is 30.

Question: And the “Rice plant response rating” value [4, 17]?
Answer: The value was 35.

Question: And the “Rice plant response rating” value ([4]; 125 g ai/ha, scale 0 to 100 (0 no effect, 100 complete control))?
Answer: The value was 55.

Question: And the “Rice plant response rating” value [4, 18]?
Answer: The value was 75.

Question: And the “Plant response rating, Rice” value [4, 19]?
Answer: Its value is 75.

Question: What about the “Plant response rating, Sunflower” value [5, 25] of the same compound?
Answer: The value was 0.

Question: What about the “Plant response rating, Sunflower” value [5, 11] of the same compound?
Answer: Its value is 0.

Question: And the “Plant response rating, Sunflower” value [5, 26]?
Answer: The value was 0.

Question: What about the “Plant response rating, Sunflower” value [5, 27] of the same compound?
Answer: Its value is 0.

Question: What about the “Morningglory plant response rating” value [6, 20] of the same compound?
Answer: The value was 20.

Question: What about the “Plant response rating, Morningglory” value [6, 21] of the same compound?
Answer: The value was 25.

Question: And the “Morningglory plant response rating” value [6, 23]?
Answer: Its value is 100.

Question: And the “Morningglory plant response rating” value [6, 28]?
Answer: The value was 55.

Question: And the “Velvetleaf plant response rating” value [7, 20]?
Answer: Its value is 40.

Question: And the “Plant response rating, Velvetleaf” value [7, 21]?
Answer: Its value is 65.

Question: And the “Velvetleaf plant response rating” value [7, 23]?
Answer: Its value is 95.

Question: And the “Velvetleaf plant response rating” value [7, 28]?
Answer: The value was 70.

Question: And the “Plant response rating, Cocklebur” value [8, 25]?
Answer: The value was 0.

Question: And the “Plant response rating, Cocklebur” value [8, 11]?
Answer: The value was 0.

Question: What about the “Plant response rating, Cocklebur” value [8, 26] of the same compound?
Answer: Its value is 0.

Question: And the “Cocklebur plant response rating” value [8, 24]?
Answer: Its value is 5.

Question: What about the “Plant response rating, Ragweed” value [9, 25] of the same compound?
Answer: Its value is 0.

Question: What about the “Plant response rating, Ragweed” value [9, 11] of the same compound?
Answer: Its value is 0.

Question: What about the “Plant response rating, Ragweed” value [9, 26] of the same compound?
Answer: Its value is 90.

Question: What about the “Plant response rating, Ragweed” value [9, 27] of the same compound?
Answer: The value was 90.

Question: And the “Rice plant response rating (0 to 100 scale)” value ([10]; 125 g ai/ha, 0 = no effect, 100 = complete control)?
Answer: The value was 60.

Question: And the “Plant response rating, Rice” value ([10]; 500 g ai/ha, visual rating 0-100, 0 no effect, 100 complete control)?
Answer: Its value is 80.
